In paper PMC3094505 (Structure (London, England : 1993), 2011):
Where two headings read alike, the source gives them in different places. Where no end group is shown, it is not given here.

Columns and labels:
[1] = molecular target: T1, CaM76-148 (C-domain of CaM) (Paramecium tetraurelia, UniProt P07463); details: read-out: Kd, Ca^2+-saturated CaM76-148 binding, stoichiometric binding, only an upper limit for Kd, fluorescence anisotropy, pH 7.4, 22 °C
[2] = molecular target: T1, CaM76-148 (C-domain of CaM); test: biochemical
[3] = molecular target: T2, CaM1-148 (full-length CaM) (Paramecium tetraurelia, UniProt P07463); test: Fluorescence anisotropy titration of Fl-Nav1.2IQp with CaM1-148; format: binding
[4] = molecular target: CaM1-80 (N-domain of CaM) (Paramecium tetraurelia, UniProt P07463); test: Equilibrium Ca2+ titration of CaM1-80 with Nav1.2IQp; format: biochemical; details: 6 μM CaM, 9 μM Nav1.2IQp, 22 °C; phenylalanine fluorescence
[5] = molecular target: T2, CaM1-148 (full-length CaM); test: Equilibrium Ca2+ titration of CaM1-148 with Nav1.2IQp; format: biochemical
[6] = system: CaM; details: apo CaM compared with (Ca^2+)4-CaM
[7] = molecular target: T2, CaM1-148 (full-length CaM); test: Ca2+ titration of apo CaM1-148:Nav1.2IQp complex monitored by 15N/1H-HSQC; format: biochemical; details: 15N/1H-HSQC titration, pH 6.8
[8] = system: CaM; details: ref Mori et al., 2000; cited from earlier work
[9] = system: (Ca^2+)4-CaM (CaM1-148); format: binding, Paramecium; details: Nav1.2_1913-1938 in 6-fold excess, fluorescence anisotropy (Figure S6A)

KRKQEEVSAIVIQRAYRRYLLKQKVKK [Fl-Nav1.2IQp]
Kd [1]: ≤ 10 nM
Kd [2]: ≤ 10 nM
Kd [3]: ≤ 10 nM

KRKQEEVSAIVIQRAYRRYLLKQKVKK [Nav1.2IQp]
effect on Ca^2+ binding to sites I and II of CaM1-80 [4]: little effect
effect on Ca^2+ binding to sites I and II of CaM1-148 ([5]; 6 μM CaM, 9 μM Nav1.2IQp, 22 °C, phenylalanine fluorescence): little effect
lowering of overall Ca^2+-binding affinity of CaM (free energy) ([5]; overall, CaM, with versus without Nav1.2IQp (Figure 2D)): 4.03 kcal/mol
relative affinity for apo CaM versus (Ca^2+)4-CaM [6]: higher affinity for apo CaM than (Ca^2+)4-CaM
Ca^2+-binding affinity of sites I and II relative to sites III and IV of CaM1-148 bound to Nav1.2IQp [7]: slightly more favorable

QRAYRRYLLKQKVKKVSSIYKKDKGK [Nav1.2BAA-1913-1938]
binding to (Ca^2+)4-CaM [8]: binds to (Ca^2+)4-CaM
simultaneous binding of Nav1.2IQp and Nav1.2_1913-1938 to (Ca^2+)4-CaM [9]: no evidence for simultaneous binding
